Marks after values point to notes of the source that are not given here.
Tests used:
[1] = tested on: SIBO-related hyperalgesia; assay: Treatment of SIBO-related hyperalgesia (cases); assay type: in vivo, human
Protocol: Two adult female subjects with IBS required additional pharmacologic manipulations to treat their SIBO-related hyperalgesia. In the first case, SIBO was eradicated by antibiotic treatment. However, the subject complained of persistent feelings of rectal distension, consistent with residual hyperalgesia related to SIBO. The subjected was then administered Colpermin (peppermint oil) capsules and Elavil (5 mg taken at night) that alleviated their SIBO-related hyperalgesic symptoms, presumably by reducing intestinal wall tension and decreasing mechanoreceptor activation.
The second subject with a diagnosis of IBS was also found to have SIBO, as detected by LBHT. Their SIBO was eradicated by a combined treatment with antibiotic, intestinal lavage with Go-Lytely, and cisapride (10 mg tid) to increase their abnormally low phase III interdigestive motility. After eradication of SIBO, this subject similarly complained of persistent SIBO-related hyperalgesic symptoms of the bowel.

upper gut transit [2] = assay: Upper gut transit time by lactulose breath hydrogen test after oleate or oleic acid; assay type: in vivo, human; settings: for upper gut transit time: case, diarrhea-predominant IBS
Description: In a preliminary study, five patients with persistent diarrhea for 3 to 22 months, (one each due to vagal denervation, ileal resection for Crohn's disease, and vagotomy and antrectomy, and two due to idiopathic causes) were studied. […] This test relies on the metabolism of certain carbohydrate materials (e.g. lactulose) by the microbial flora within the caecum. By generating gas which can be detected in the expired air, it is possible to make some estimation about the initial arrival of the administered material within the colon.
Each patient received orally in random order, 0, 1.6 or 3.2 g of sodium oleate in 25 mL Ensure (Ross), followed by 100 mL water. Thirty minutes after each dose of oleate, patients received 10 g lactulose orally, followed by 25 mL water. Breath samples were collected in commercially available breath testing bags (Quintron, Menomonee Falls, Wis.) every 10-15 minutes, and the hydrogen content of the samples was measured using a breath analyzer (Microlyzer Model 12, Quintron Instruments, Menomonee Falls, Wis.), calibrated against gas samples of known hydrogen concentration. With a syringe, a 40-mL sample of the expired breath was withdrawn from the collection bag and analyzed immediately for hydrogen concentration (ppm). The hydrogen concentration value from each sample was plotted against time. Upper gut transit time was defined as the time in minutes from ingestion of lactulose (t0) until a rise of H2 of >10 ppm. Data were further analyzed using 1-way repeated measures analysis of variance (ANOVA)(See Table 4).
The effect of an active lipid on transit time was determined in 8 normal human subjects (1 male and 7 females with a mean age of 35±2.6 years [SE]) and 45 patients (20 males and 25 females with a mean age of 49.1±2.5 [SE], age range from 18 to 90 years) with chronic diarrhea (i.e., continuous diarrhea for more than two months) associated with a wide variety of diagnoses and conditions (e.g., Crohn's disease; irritable bowel syndrome; short bowel syndrome; Indiana pouch; AIDS; ulcerative colitis; vagotomy; antrectomy; ileostomy; partial and complete colectomy; colon cancer; diabetes mellitus type 1; pancreatic insufficiency; radiation enteropathy; esophagectomy/gastric pull-up; total and subtotal gastrectomy; gastrojejunostomy), made by referring gastroenterologists. The method was the same as described above, except oleic acid (Penta Manufacturing, Livingston, N.J.) replaced sodium oleate in 50 mL of Ensure emulsion. All subjects refrained from taking antibiotics for at least two weeks before each testing date and during stool measurement periods. Patients were also instructed to refrain from anti-diarrheal drugs, laxatives, somatostatin analogues or anticholinergics for at least 48 hours before each test. In both the normal and patient groups, there was a significant slowing of upper gut transit time in response to oleic acid, as summarized in Table 5 below (p<0.001).

[3] = tested on: rapid upper gut transit and diarrhea; assay: Continued pre-meal oleate/oleic acid treatment: diarrhea, stool output, symptoms; assay type: in vivo, human
Description: Continuing oleic acid treatment at home was offered to Aresponders≅ (i.e., patients who experienced a greater than 100% increase in baseline transit time with 3.2 g oleic acid). Of the 36 responders out of the original 45 patients, 18 provided records of stool volume and frequency on- and off-treatment for comparison. The inconvenient and unappealing nature of stool collection and measurement were the primary reasons reported by responders who chose not to participate in stool collection. After completing a set of three preliminary breath hydrogen tests, each participating responder was asked to refrain from taking oleic acid for two days in order to measure off-treatment stool output for a 24-hour period. Patients were issued a stool pattern record form and a stool collection container with graduated volume markings to record the frequency and volume of bowel movements. After two days without oleic acid, each patient took 3.2 g of oleic acid mixed with 25 mL of Ensure emulsion three times a day, 30 minutes before breakfast, lunch and dinner. After taking oleic acid for two days, patients recorded stool output for another 24-hour period. With this oleic acid emulsion treatment, stool frequency decreased from 6.9±0.8 to 5.4±0.9 bowel movements per 24-hour period (p<0.05), and stool volume decreased from 1829.0±368.6 to 1322.5±256.9 per 24-hour period (p<0.05).
The patient was a person with a history of adolescent-onset, persistent diarrhea. […] They presented with complaints of excessive gas, postprandial bloating, diarrhea and urgency, and 3 to 7 liquid bowel movements per day. Their upper gut transit times were (min) 30 (0 g oleic acid), 117 (1.6 g oleic acid) and 101 (3.2 g oleic acid).

upper gut transit [4] = assay: Upper gut transit time by lactulose breath hydrogen test after oleate or oleic acid; assay type: in vivo, human; settings: 4 grams of oleic acid
ileal brake = settings: rats, subcutaneous administration; Brown et al. 1993; cited from earlier work
intestinal transit = assay: Intestinal transit in multi-fistulated dogs, cumulative % recovery of 99mTc-DTPA; assay type: in vivo, dog
Description: The experiments described below are based on a previously described chronic multi-fistulated dog model, employing surgically fistulated male or female mongrel dogs weighing about 25 kg each. (Lin, H. C. et al., Inhibition of gastric emptying by glucose depends on length of intestine exposed to nutrient, Am. J. Physiol. 256:G404-G411 [1989]). The small intestines of the dogs were each about 300 cm long from the pylorus to the ileal-cecal valve. The duodenal fistula was situated 15 cm from the pylorus; the mid-gut fistula was situated 160 cm from the pylorus. Occluding Foley catheters (balloon catheters that are inflated to produce a water-tight seal with the lumenal surface) were placed into the distal limb of a duodenal fistula and a mid-gut fistula, fat or other test agents were administered lumenally to the thus compartmentalized Aproximal≅ section of the gut, i.e., between the fistulas, or to the compartmentalized Adistal≅ section of the gut, i.e., beyond the mid-gut fistula. Perfusate was pumped into a test section through the catheter at a rate of 2 mL/minute. Test agents were administered along with buffer perfusate, but some test agents were administered intravenously, where specifically noted.
Intestinal transit measurements were made by tracking the movement of a liquid marker across the approximately 150 cm intestinal test segment by delivering about 20 μCi ^99mTc chelated to diethyltriamine pentaacetic acid (DTPA)(Cunningham, K. M. et al., Use of technicium-99m (V)thiocyanate to measure gastric emptying of fat, J. Nucl. Med. 32:878-881 [1991]) as a bolus into the test segment after 60 minutes of a 90-minute perfusion. The output from the mid-gut fistula was collected every 5 min thereafter for 30 minutes, which period is illustrated in FIGS. 9-23. Using a matched dose of ^99mTc to represent the original radioactivity (Johansson, C., Studies of gastrointestinal interactions, Scand. J. Gastroenterol. 9(Suppl 28):1-60 [1974]; Zierler, K., A simplified explanation of the theory of indicator dilution for measurement of fluid flow and volume and other distributive phenomena, Bull. John Hopkins 103:199-217 [1958]), the radioactivity delivered into the animal as well as the radioactivity of the recovered fistula output were all measured using a gamma well counter. After correcting all counts to time zero, intestinal transit was calculated as the cumulative percent recovery of the delivered ^99mTc-DTPA. This method has been well validated over the years and appreciated for its advantage of minimal inadvertent marker loss. […] There was a very high level of marker recovery, with 90% of the marker recovered by 30 minutes and 98% of the marker recovered by 45 minutes.

SIBO [5] = assay: Case: autism with bowel symptoms, Augmentin; assay type: in vivo, human; settings: one patient
SIBO [6] = assay: Comparison of antibiotic regimes for eradicating SIBO, follow-up lactulose breath hydrogen test (LBHT); assay type: in vivo, human; settings: follow-up LBHT
Protocol: Subjects were tested after an overnight fast. […] Each breath sample was then analyzed for hydrogen content with a gas chromatograph (Quintron Model DP, Quintron Instrument Co., Division of E.F. Brewer Co, Menomonee Falls, Wis. 53051), standardized using a QuinGas standard as instructed by the manufacturer. Hydrogen peaks were plotted before and after an antimicrobial treatment regimen for comparison. The normal range for the second hydrogen peak was 0 to 20 ppm. Subjects referred to the Cedars-Sinai GI Motility Program for a lactulose breath hydrogen test (LBHT) to assess SIBO were entered into a database. Those that tested positive for SIBO were given antibiotic treatment by their referring physician and in some cases, returned for a follow-up LBHT to assess eradication of SIBO. During the follow-up LBHT, subjects were asked which antibiotic they were given to treat their SIBO. The eradication rate of each antibiotic was evaluated. Of the 771 subjects in the database, 561 (73%) tested positive for SIBO. […] (See Table 1 below). […] None of the commonly used antibiotics was universally successful in eradicating overgrowth.

In the case of `CN(C)CCC=C1c2ccccc2CCc2ccccc21` [Elavil, amitriptyline], the SIBO-related hyperalgesic symptoms ([1]; first subject, Colpermin capsules and Elavil (5 mg at night) together) is reported as “alleviated”.

For `COc1cc(N)c(Cl)cc1C(=O)NC1CCN(CCCOc2ccc(F)cc2)CC1OC` (stereo not drawn) [cisapride], the “eradication of SIBO” value ([1]; second subject, combined antibiotic, lavage with Go-Lytely and cisapride (10 mg tid)) was “eradicated”.

In the case of `CCCCCCCC/C=C\CCCCCCCC(=O)O` [oleic acid], the “responders (greater than 100% increase in baseline transit time)” value (upper gut transit [2]; 3.2 g oleic acid, out of the original 45 patients) is reported as 36, the “Transit time (mean ± SE)” value (upper gut transit [2]; Normal subjects (8), 1.6 g oleic acid in 50 mL Ensure) is reported as 116 ± 11.1 min and the “Transit time (mean ± SE)” value (upper gut transit [2]; Normal subjects (8), 3.2 g oleic acid) is reported as 140 ± 11.5 min. For the same compound, the “Transit time (mean ± SE)” value (upper gut transit [2]; Patients with chronic diarrhea (45), 1.6 g oleic acid) was 57.2 ± 4.5 min, the “Transit time (mean ± SE)” value (upper gut transit [2]; Patients with chronic diarrhea (45), 3.2 g oleic acid) was 83.3 ± 5.2 min and the “upper gut transit time” value (upper gut transit [2]; 1.6 g oleic acid) was 117 min. For the same compound, the “upper gut transit time” value (upper gut transit [2]; 3.2 g oleic acid) was 101 min, the “stool frequency, bowel movements per 24-hour period” value ([3]; 18 responders, 3.2 g in 25 mL Ensure three times a day, off-treatment 6.9±0.8) was 5.4±0.9 and the “stool volume per 24-hour period” value ([3]; 18 responders, on treatment, off-treatment 1829.0±368.6) was 1322.5±256.9. The “symptoms of gaseousness, bloating and rectal urgency” value ([3]; case, diarrhea-predominant IBS) was “complete relief”, the bowel frequency ([3]; case, diarrhea-predominant IBS, continuing treatment) was “single, solid bowel movement per day” and the adverse effect reported ([3]; only adverse effect reported by any patient) was “slight and transient burning sensation in the mouth or throat”. The mean transit time (upper gut transit [4]; IBD patients (n=18)) was 114.6 ± 16.0 min and the mean transit time (upper gut transit [4]; normal subjects (n=5)) was 136.0 ± 15.4 min.

For `Cc1nccn1CC1CCc2c(c3ccccc3n2C)C1=O` (stereo not drawn) [ondansetron], the “ileal brake induced by ileal infusion of lipid” value (ileal brake) is given as “abolished the ileal brake”, the “intestinal transit of a baked bean meal” value (ileal brake) is given as “delayed” and the “Transit Across Proximal Gut (Cumulative % Marker Recovered)” value (intestinal transit; Buffer + NE + Ond perfused lumenally 0.7 mg/kg/h) is given as 63.0 ± 4.4^b %. The marker recovery (intestinal transit; IV PYY + ondansetron 0.7 mg/kg/h in proximal gut) was 78.3±4.8%, the marker recovery (intestinal transit; IV PYY + ondansetron in distal gut) was 12.9±12.9% and the marker recovery (intestinal transit; distal gut 5-HT + ondansetron 0.7 mg/kg bolus in distal gut) was 79.5±2.4%. It also gave a marker recovery (intestinal transit; distal gut 5-HT + ondansetron 0.7 mg/kg bolus in proximal gut) of 73.8±9.5%, a marker recovery (intestinal transit; ileal brake + 6.25 mg ondansetron bolus, proximal gut) of 35.4% and a marker recovery (intestinal transit; ileal brake + 12.5 mg ondansetron bolus, proximal gut) of 55.8%. For the same compound, the marker recovery (intestinal transit; ileal brake + 25 mg ondansetron bolus, proximal gut) was 77.6%, the marker recovery (intestinal transit; ileal brake + intravenous ondansetron 0.15 mg/kg/1.5 h, n=2) was 13±2.0% and the marker recovery (intestinal transit; ileal brake + lumenal ondansetron 0.7 mg/kg/h in proximal gut, n=2) was 78±2.4%. The marker recovery (intestinal transit; ileal brake + ondansetron in distal gut, n=4) was 22.8±2.6%, the marker recovery (intestinal transit; ileal brake + ondansetron in proximal gut, n=4) was 68.5±2.7% and the marker recovery (intestinal transit; intravenous norepinephrine + ondansetron 0.7 mg/kg/h in proximal gut) was 63.4%. For the same compound, the marker recovery (intestinal transit; lumenal buffer + lumenal ondansetron, Buffer-NS 96.0±4.0%) was 57.9±15.9% and the marker recovery (intestinal transit; lumenal oleate + lumenal ondansetron 0.7 mg/kg bolus, proximal gut) was 73.7±10.6%.

In the case of Augmentin, the concentration and behavior (SIBO [5]) is reported as “some positive concentration and behavioral changes”, the bowel habits (SIBO [5]; 500 mg twice a day for ten days) is reported as “substantial improvement” and the “% Patients with SIBO Eradicated” value (SIBO [6]) is reported as 50%.

Reference: patent US9358276B2, “Methods of diagnosing and treating small intestinal bacterial overgrowth (SIBO) and SIBO-related conditions” (Cedars-Sinai Medical Center, priority 1999, dated 2016)
